Experimental findings from PubChem BioAssay AID330 (DTP/NCI, 2004) are described below.

Values joined by “and” are separate entries in the source; they are usually repeats but may differ in a detail not shown here. Equal values may be shown once. Inconclusive results and toxic doses are left out.

In the assay the test system is P388 leukemia ip, CD2F1 mice, survival T/C. The experiment in a line: NCI In Vivo Anticancer Drug Screen. Data for tumor model P388 Leukemia (intraperitoneal) in CD2F1 (CDF1) mice. The following applies: endpoint: median survival time, higher = longer survival. An outline of the steps:
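Mice carrying the transplanted tumor received test compound or vehicle. Survival was recorded in each group, and the value is the treated-group measurement divided by that of the vehicle-treated control group.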

Where [1] appears, read: dose: 50.0 mg/kg/injection, schedule: Q01DX009 (ip), vehicle: saline.
Where [2] appears, read: dose: 100.0 mg/kg/injection, schedule: Q01DX009 (ip), vehicle: saline.
Where [3] appears, read: dose: 200.0 mg/kg/injection, schedule: Q01DX009 (ip), vehicle: saline.
Where [4] appears, read: dose: 50.0 mg/kg/injection, schedule: Q01DX009 (ip), vehicle: saline with Tween-80.
Setting [5] is: dose: 100.0 mg/kg/injection, schedule: Q01DX009 (ip), vehicle: saline with Tween-80.
Where [6] appears, read: dose: 200.0 mg/kg/injection, schedule: Q01DX009 (ip), vehicle: saline with Tween-80.
Where [7] appears, read: dose: 50.0 mg/kg/injection, schedule: Q01DX005 (ip), vehicle: saline with Tween-80.
The mark [8] stands for this setting: dose: 100.0 mg/kg/injection, schedule: Q01DX005 (ip), vehicle: saline with Tween-80.

In the case of `CC(=O)OCC1OC(N(CCCl)CCCl)C(OC(C)=O)C(OC(C)=O)C1OC(C)=O` (configuration not stated), the T/C was 106 % of control (dose: 1.25 mg/kg/injection, schedule: Q01DX005 (ip), vehicle: distilled water + Tween-80); 110 % of control and 115 % of control (dose: 2.5 mg/kg/injection, schedule: Q01DX005 (ip), vehicle: distilled water + Tween-80); 110 % of control and 117 % of control and 119 % of control (dose: 5.0 mg/kg/injection, schedule: Q01DX005 (ip), vehicle: distilled water + Tween-80); 173 % of control (dose: 10.0 mg/kg/injection, schedule: Q01DX005 (ip), vehicle: distilled water + Tween-80); 187 % of control [middle of 4 runs] (dose: 20.0 mg/kg/injection, schedule: Q01DX005 (ip), vehicle: distilled water + Tween-80); 199 % of control (dose: 40.0 mg/kg/injection, schedule: Q01DX005 (ip), vehicle: distilled water + Tween-80).
Take `CCOC(=O)Oc1ccc[nH]c1=O`: the T/C was 100 % of control and 96 % of control (dose: 25.0 mg/kg/injection, schedule: Q01DX009 (ip), vehicle: saline); 100 % of control and 109 % of control (dose: 25.0 mg/kg/injection, schedule: Q01DX009 (sc), vehicle: saline with Tween-80); 100 % of control under setting [1]; 108 % of control and 109 % of control (dose: 50.0 mg/kg/injection, schedule: Q01DX009 (sc), vehicle: saline with Tween-80); 108 % of control and 109 % of control under setting [2]; 106 % of control and 115 % of control (dose: 100.0 mg/kg/injection, schedule: Q01DX009 (sc), vehicle: saline with Tween-80). Besides, the T/C was 111 % of control and 113 % of control under setting [3]; 104 % of control and 116 % of control (dose: 200.0 mg/kg/injection, schedule: Q01DX009 (sc), vehicle: saline with Tween-80); 117 % of control and 124 % of control (dose: 400.0 mg/kg/injection, schedule: Q01DX009 (ip), vehicle: saline); 101 % of control and 108 % of control (dose: 400.0 mg/kg/injection, schedule: Q01DX009 (sc), vehicle: saline with Tween-80); 107 % of control and 112 % of control (dose: 600.0 mg/kg/injection, schedule: Q01DX009 (sc), vehicle: saline with Tween-80).
For the compound `COC1/C=C/OC2(C)Oc3c(C)c(O)c4c(O)c(c(/C=N/N5C(C)CN(Cc6ccccc6O)CC5C)c(O)c4c3C2=O)NC(=O)/C(C)=C\C=C\C(C)C(O)C(C)C(O)C(C)C(OC(C)=O)C1C` (configuration not stated), the T/C runs as follows: under setting [4], 92 % of control; under setting [5], 96 % of control; under setting [6], 91 % of control.
In the case of `CN(C)c1ccc(N=Nc2ccc3cc4ccccc4cc3c2)cc1`, the T/C by setting is: (dose: 25.0 mg/kg/injection, schedule: Q04DX003 (ip), vehicle: saline with Tween-80) 101 % of control; (dose: 50.0 mg/kg/injection, schedule: Q04DX003 (ip), vehicle: saline with Tween-80) 105 % of control.
With `C=C1C(=O)OC2C1C(O)C(OC(=O)/C(C)=C/C)C(C)C1C(=O)C=C(C)C21` (configuration not stated), the T/C was 107 % of control (dose: 6.25 mg/kg/injection, schedule: Q01DX005 (ip), vehicle: Klucel (hydroxypropylcellulose) (HPC)); 114 % of control (dose: 12.5 mg/kg/injection, schedule: Q01DX005 (ip), vehicle: Klucel (hydroxypropylcellulose) (HPC)); 115 % of control (dose: 25.0 mg/kg/injection, schedule: Q01DX005 (ip), vehicle: Klucel (hydroxypropylcellulose) (HPC)).
On to `CC1CNC2(c3ccccc3)CSC=C(c3ccccc3)N12` (configuration not stated), for which the T/C runs as follows: (dose: 100.0 mg/kg/injection, schedule: Q04DX002 (ip), vehicle: saline with Tween-80) 98 % of control; (dose: 200.0 mg/kg/injection, schedule: Q04DX002 (ip), vehicle: saline with Tween-80) 101 % of control; (dose: 400.0 mg/kg/injection, schedule: Q04DX002 (ip), vehicle: saline with Tween-80) 102 % of control.
As for `CC12OCCC1C(c1ccccc1[N+](=O)[O-])Nc1ccccc12` (configuration not stated), the T/C reads like this: (dose: 100.0 mg/kg/injection, schedule: Q01DX001 (ip), vehicle: saline with Tween-80) 114 % of control; (dose: 200.0 mg/kg/injection, schedule: Q01DX001 (ip), vehicle: saline with Tween-80) 97 % of control; (dose: 400.0 mg/kg/injection, schedule: Q01DX001 (ip), vehicle: saline with Tween-80) 94 % of control.
For the compound `Cc1oc2c(c(=O)c1C)C1CCC(C2)N1C` (configuration not stated), the T/C is 106 % of control (dose: 50.0 mg/kg/injection, schedule: Q01DX005 (ip), vehicle: Klucel (hydroxypropylcellulose) (HPC)) and 97 % of control (dose: 100.0 mg/kg/injection, schedule: Q01DX005 (ip), vehicle: Klucel (hydroxypropylcellulose) (HPC)).
Consider `Cn1cc(NC(=O)c2cc(NC(=O)c3cc(NC=O)cn3C)cn2C)cc1C(=O)NCCC(=N)N`, for which the T/C (dose: 15.0 mg/kg/injection, schedule: Q01DX005 (ip), vehicle: water) is 100 % of control; the T/C (dose: 30.0 mg/kg/injection, schedule: Q01DX005 (ip), vehicle: water) is 101 % of control; the T/C (dose: 60.0 mg/kg/injection, schedule: Q01DX005 (ip), vehicle: water) was 96 % of control; the T/C (dose: 120.0 mg/kg/injection, schedule: Q01DX005 (ip), vehicle: water) is 104 % of control.
Take `Cc1n[nH]c(=O)c2[nH]c3ccccc3c12`: the T/C is 104 % of control (dose: 60.0 mg/kg/injection, schedule: Q01DX005 (ip), vehicle: saline with Tween-80); 97 % of control (dose: 120.0 mg/kg/injection, schedule: Q01DX005 (ip), vehicle: saline with Tween-80); 96 % of control (dose: 240.0 mg/kg/injection, schedule: Q01DX005 (ip), vehicle: saline with Tween-80).
In the case of `COC(=O)C1c2cc3c(c(O)c2C(OC2OC(C)C(OC)C(C)(OC)C2OC)CC1(C)O)C(=O)c1c(O)cc2c(c1C3=O)OC1OC2(C)C(OC(C)=O)C(N(C)C)C1OC(C)=O` (configuration not stated), the T/C was 87 % of control (dose: 3.12 mg/kg/injection, schedule: Q04DX003 (ip), vehicle: other) and 103 % of control (dose: 6.25 mg/kg/injection, schedule: Q04DX003 (ip), vehicle: other).
As for `CC1(C(=O)O)C2[Se]c3[se]ccc3C2C1(C)C(=O)O` (configuration not stated), the T/C reads like this: under setting [7], 104 % of control; under setting [8], 96 % of control; (dose: 200.0 mg/kg/injection, schedule: Q01DX005 (ip), vehicle: saline with Tween-80) 102 % of control.
On to `O=C(O)CC(Nc1ccc([N+](=O)[O-])cc1[N+](=O)[O-])C(=O)O` (configuration not stated), for which the T/C is 100 % of control (dose: 50.0 mg/kg/injection, schedule: Q01DX005 (ip), vehicle: saline); 106 % of control (dose: 100.0 mg/kg/injection, schedule: Q01DX005 (ip), vehicle: saline); 103 % of control (dose: 200.0 mg/kg/injection, schedule: Q01DX005 (ip), vehicle: saline).
As to `S=c1s[nH]c2c1CCC2`, the T/C was 98 % of control under setting [4]; 105 % of control under setting [1]; 101 % of control under setting [5]; 110 % of control under setting [2]; 105 % of control under setting [6]; 120 % of control under setting [3]. Besides, the T/C (dose: 400.0 mg/kg/injection, schedule: Q01DX009 (ip), vehicle: saline with Tween-80) is 95 % of control.
Regarding `C=CCCN1CC2CC(C1)N1CCCCC1C2=O` (configuration not stated), the T/C is 102 % of control (dose: 5.25 mg/kg/injection, schedule: Q01DX005 (ip), vehicle: Klucel (hydroxypropylcellulose) (HPC)); 103 % of control (dose: 10.5 mg/kg/injection, schedule: Q01DX005 (ip), vehicle: Klucel (hydroxypropylcellulose) (HPC)); 100 % of control (dose: 21.0 mg/kg/injection, schedule: Q01DX005 (ip), vehicle: Klucel (hydroxypropylcellulose) (HPC)); 103 % of control (dose: 42.0 mg/kg/injection, schedule: Q01DX005 (ip), vehicle: Klucel (hydroxypropylcellulose) (HPC)).
Regarding `CC1(C)CC(=O)[C@H]2SCC(=O)CC21` (some centres not stated), the T/C is 86 % of control under setting [7] and 99 % of control under setting [8].
As to `CC1(C)CC(OC(=O)CCC(=O)OC2CC(C)(C)N(O)C(C)(C)C2)CC(C)(C)N1O`, the T/C runs as follows: (dose: 50.0 mg/kg/injection, schedule: Q01DX009 (ip), vehicle: suspension in saline) 100 % of control; (dose: 100.0 mg/kg/injection, schedule: Q01DX009 (ip), vehicle: suspension in saline) 100 % of control; (dose: 200.0 mg/kg/injection, schedule: Q01DX009 (ip), vehicle: suspension in saline) 96 % of control.
For `CC(CCCN)Nc1cc(O)cc2cccnc12` (configuration not stated), the T/C is 92 % of control (dose: 100.0 mg/kg/injection, schedule: Q01DX001 (ip), vehicle: saline); 92 % of control (dose: 200.0 mg/kg/injection, schedule: Q01DX001 (ip), vehicle: saline); 89 % of control (dose: 400.0 mg/kg/injection, schedule: Q01DX001 (ip), vehicle: saline).
